Activity calls are given as the source filed them.
Key:
[1] = biological target: T1, Calpain-2 catalytic subunit (Sus scrofa, UniProt P43367); test: pig calpain II inhibitor potency, dose response, biochemical, fluorogenic peptide substrate (AID 1420); format: functional
T1 sequence (P43367 whole entry): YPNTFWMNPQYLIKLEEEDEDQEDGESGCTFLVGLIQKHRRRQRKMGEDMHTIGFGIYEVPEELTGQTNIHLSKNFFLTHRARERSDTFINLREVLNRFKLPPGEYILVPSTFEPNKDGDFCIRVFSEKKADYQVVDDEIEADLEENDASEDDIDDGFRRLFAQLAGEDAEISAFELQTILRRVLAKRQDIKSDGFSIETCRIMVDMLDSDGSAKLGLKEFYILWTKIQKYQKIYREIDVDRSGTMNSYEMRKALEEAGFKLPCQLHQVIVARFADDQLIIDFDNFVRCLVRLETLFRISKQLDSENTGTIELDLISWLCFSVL

Vero = test: cells; format: functional; details: Chlorocebus sabaeus
[2] = growth suppression of PTEN-null colon cells, dose response, cell-based, HCT116 PTEN knockout (AID 1047); format: functional;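 note: HCT116 colon tumor cells with PTEN knocked out; cells exposed to compound for 60 hours before readout; potency for loss of cell viability measured by luminescence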
[3] = Shn3 3'UTR reporter inhibitors, dose response, cell-based, Clone20 osteoblasts, firefly luciferase, cherry-picked (AID 624132); format: functional;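 note: firefly luciferase luminescence from reporter carrying the Shn3 3'UTR in osteoblasts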
[4] = HepG2 cell cytotoxicity, dose response, cytotoxicity control for Shn3 inhibitor project, CellTiter-Glo, cherry-picked (AID 624134); format: functional, cell-based
[5] = control 3'UTR Renilla luciferase suppression, dose response, counter-screen for Shn3 inhibitor project, cell-based, Clone20-Shn3RL, cherry-picked (AID 624133); format: functional
[6] = biological target: Luciferin 4-monooxygenase (Photinus pyralis, UniProt P08659); test: firefly luciferase enzyme inhibitors, dose response, biochemical, luminescence (AID 1891)
[7] = Luminescence Cell-Based Dose Confirmation HTS to Identify Inhibitors of Platelet Dense Granule Release. [Related pubchem assays: 1663 (Primary HTS), 1678 (Summary of Project)]; format: functional
[8] = biological target: T2, RNA-binding protein pos-1 (Caenorhabditis elegans, UniProt G5EF15); test: inhibitors of POS-1/mex-3 RNA binding, dose response, biochemical, fluorescence polarization (AID 1964);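 note: purified POS-1 fused to maltose binding protein made in E. coli; potency of compounds blocking POS-1 binding to fluorescent RNA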
T2 sequence (G5EF15 whole entry): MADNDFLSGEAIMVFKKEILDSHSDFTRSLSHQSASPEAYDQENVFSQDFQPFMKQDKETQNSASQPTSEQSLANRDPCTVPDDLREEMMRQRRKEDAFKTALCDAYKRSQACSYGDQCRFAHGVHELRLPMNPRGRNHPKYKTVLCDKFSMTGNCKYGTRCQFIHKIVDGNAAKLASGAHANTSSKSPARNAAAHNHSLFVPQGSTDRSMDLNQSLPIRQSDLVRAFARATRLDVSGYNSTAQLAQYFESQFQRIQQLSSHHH

[9] = biological target: T3, Zinc finger protein mex-5 (Caenorhabditis elegans, UniProt Q9XUB2); test: MEX-5/TCR-2 RNA interaction inhibitors, dose response, biochemical, C. elegans, fluorescence polarization (AID 1960)
T3 sequence (Q9XUB2 whole entry): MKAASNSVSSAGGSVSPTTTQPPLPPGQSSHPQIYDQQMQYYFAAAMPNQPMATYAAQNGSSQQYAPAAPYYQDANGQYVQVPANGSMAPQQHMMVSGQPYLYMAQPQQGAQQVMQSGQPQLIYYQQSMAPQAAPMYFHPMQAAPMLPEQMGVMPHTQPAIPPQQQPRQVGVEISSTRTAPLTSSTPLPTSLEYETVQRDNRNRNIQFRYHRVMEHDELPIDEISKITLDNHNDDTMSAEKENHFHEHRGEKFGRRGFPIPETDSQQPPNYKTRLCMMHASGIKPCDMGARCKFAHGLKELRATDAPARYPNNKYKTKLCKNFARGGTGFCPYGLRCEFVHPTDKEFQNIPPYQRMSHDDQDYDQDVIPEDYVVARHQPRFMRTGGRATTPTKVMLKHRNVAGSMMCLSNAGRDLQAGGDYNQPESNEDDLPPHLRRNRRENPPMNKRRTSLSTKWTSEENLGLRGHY

Sequence of Luciferin 4-monooxygenase (P08659 whole entry): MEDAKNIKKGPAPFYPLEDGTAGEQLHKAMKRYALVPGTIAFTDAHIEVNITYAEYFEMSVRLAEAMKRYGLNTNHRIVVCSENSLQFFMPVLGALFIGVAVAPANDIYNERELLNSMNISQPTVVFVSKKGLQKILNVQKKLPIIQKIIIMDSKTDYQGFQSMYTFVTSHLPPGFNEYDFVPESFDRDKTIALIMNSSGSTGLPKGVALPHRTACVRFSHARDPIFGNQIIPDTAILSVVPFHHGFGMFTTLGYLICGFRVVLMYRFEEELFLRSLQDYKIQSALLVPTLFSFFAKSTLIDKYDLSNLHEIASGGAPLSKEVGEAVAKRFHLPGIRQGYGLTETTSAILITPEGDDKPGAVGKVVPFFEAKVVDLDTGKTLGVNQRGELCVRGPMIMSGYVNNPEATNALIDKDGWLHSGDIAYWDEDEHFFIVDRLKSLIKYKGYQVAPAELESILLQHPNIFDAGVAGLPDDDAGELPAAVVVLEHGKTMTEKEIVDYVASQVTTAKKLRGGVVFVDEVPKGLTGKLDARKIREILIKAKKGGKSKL

Question: For `COc1ccc(C(=O)CSc2nc(N)nc(SC)c2C#N)cc1`, which IC50 [1] is on record?
Answer: The IC50 was 17.3 µM (not active).

Question: With `CCN(CC)CCNc1nc(-c2ccc(OC)cc2)c(-c2ccc(OC)cc2)s1` as the compound, how does the CC50 (Vero) read?
Answer: The CC50 was > 25 µM (active).

Question: For `COc1ccc(COC(=O)Nc2cc3c(C(F)(F)F)nn(C)c3s2)cc1`, which IC50 [1] is on record?
Answer: Its IC50 is 14 µM (active).

Question: With `CCN1CCN(c2cc(C)c3cc(NC(=O)c4ccc5c(c4)OCO5)ccc3n2)CC1` as the compound, how does the EC50 [2] read?
Answer: Its EC50 is 25.1 µM (active).

Question: What about the CC50 (Vero) of the same compound?
Answer: The CC50 was > 25 µM (active).

Question: Which CC50 (Vero) does the source give for `Cc1noc(-c2ccc(Cl)cc2)c1C(=O)ON=C(N)c1ccc(C(C)(C)C)cc1` here?
Answer: The CC50 was 18.8 µM (active).

Question: Which results are given for `CC(Sc1nc2ccccc2c(=O)n1C)C(=O)Nc1ccc2c(c1)OCCO2` (centres undefined)?
Answer: AC50 [3]: 1.94 µM (active); AC50 [4]: > 70 µM (inactive); AC50 [5]: 9.21 µM (active)

Question: Which IC50 [1] does the source give for `Cc1ccc(NC(=O)CN2CCC(Cc3ccccc3)CC2)cc1S(=O)(=O)N(C)C` here?
Answer: The IC50 was 27.3 µM (not active).

Question: With `Cc1nn(Cc2cccc(C(=O)NC3CCCCC3)c2)c(C)c1Cl` as the compound, how does the CC50 (Vero) read?
Answer: Its CC50 is > 25 µM (active).

Question: With `CCn1cc(NC(=O)Nc2ccccc2C(=O)OC)c(C(N)=O)n1` as the compound, how does the EC50 [6] read?
Answer: Its EC50 is > 112 µM (not active).

Question: And the EC50 [7]?
Answer: The EC50 was > 112 µM (not active).

Question: With `COC(=O)c1ccc(NC(S)=NC2CC3CCC2C3)cc1` (centres undefined) as the compound, how does the IC50 [1] read?
Answer: The IC50 was 16.4 µM (active).

Question: Which EC50 [8] does the source give for `O=C(NCCCN1CCOCC1)C1Nc2ccc(OC(F)(F)F)cc2C2C=CCC12` (centres undefined) here?
Answer: Its EC50 is > 300 µM (not active).

Question: What about the EC50 [9] of the same compound?
Answer: Its EC50 is > 300 µM (not active).

Question: Which IC50 [1] does the source give for `CCOC(=O)c1ccc(NC(=O)Cn2c(-c3nonc3N)nc3ccccc32)cc1` here?
Answer: Its IC50 is 18.8 µM (not active).

Question: With `O=C(NC1CC1)C1Nc2ccc(OC(F)(F)F)cc2C2C=CCC12` (centres undefined) as the compound, how does the EC50 [8] read?
Answer: The EC50 was > 300 µM (not active).

Question: And the EC50 [9]?
Answer: Its EC50 is > 300 µM (not active).
